According to article PMC10726358 (Journal of Medicinal Chemistry, 2023):
Where two headings read alike, the source gives them in different places.

Legend:
BRD4 BD1 = format: binding, human; conditions: TR-FRET
Procedure: As a strategic decision, every compound synthesized across all of GSK’s bromodomain research projects was tested in both a BRD4 BD1 and a BRD4 BD2 TR-FRET assay as part of tier 1 data generation. […] LipE is a straightforward, yet powerful metric for medicinal chemistry teams to normalize potency relative to lipophilicity, a critical factor both for parameters of the human dose equation and also for promiscuity.[43],[44] To aid interpretation, diagonal lines representing different LipE values are shown, with the most desirable space found toward the top left-hand area of the plot representing molecules with the comparatively highest potency per unit of lipophilicity.
(§1) All TR-FRET and hWB cytokine assays have been described previously.[54]

MCP-1 = assay: LPS-stimulated human whole blood (hWB) MCP-1 release assay; format: cell-based
Text: The utility of a chemical probe in target validation is directly related to its quality, with important publications detailing requirements to aid researchers.[36]−[38] […] It was accepted that selectivity would be judged initially through a mutant BRD4 TR-FRET assay and would likely shift depending on the protein construct and assay format. […] Previous studies have shown that BET BD1 inhibition is sufficient to inhibit in vitro production of MCP-1 in LPS-stimulated hWB and, as such, served as a relevant measure of cellular target engagement and, concomitantly, proof of cellular permeability.[12],[39] Selectivity over other human bromodomains outside of the BET family, known collectively as non-BET bromodomains, was also required,[40] with a ≥ 100-fold selectivity window targeted. To ensure the molecules remained within developable chemical space, a target property forecast index (PFI) as defined by chromLogDpH7.4 + number of aromatic rings ≤6 was set.[41]
To understand cellular target engagement, 21 was tested in an LPS-stimulated hWB assay measuring inhibition of the inflammatory mediator MCP-1 secretion.
as §1

BRD2 BD2 = molecular target: T1, BRD2 BD2 (Homo sapiens, UniProt P25440); assay: BRD2 BD2 TR-FRET assay; format: binding
T1 construct: BRD2 BD2; purchased DiscoverX
Procedure: (§2) The BRD4 BD1/BD2 TR-FRET assay had been used routinely for this optimization work, and in order to better understand the BET BD1 domain selectivity profile, 31 was tested in TR-FRET BRD2, BRD3, and BRDT assays.
as §1

BRD3 BD1 = molecular target: T2, BRD3 BD1 (Homo sapiens, UniProt Q15059); assay: BRD3 BD1 TR-FRET assay; format: binding
T2 construct: BRD3 BD1; purchased DiscoverX
Procedure: as §2, §1

BRD4 BD2 = molecular target: T3, BRD4 BD2 (Homo sapiens, UniProt O60885); assay: BROMOscan BRD4 BD2; format: binding
T3 construct: BRD4 BD2; purchased DiscoverX
Procedure: as §2
(§3) [52] BROMOscan recombinant protein binding assays were carried out at DiscoverX. (accessed April 4, 2023).

EP300 = molecular target: T4, EP300 (Homo sapiens, UniProt Q09472); assay: BROMOscan EP300; format: binding
T4 construct: The broader non-BET bromodomain selectivity was also determined in the BROMOscan assay, with the closest off-target being EP300; purchased DiscoverX
Procedure: as §2, §3

CREBBP = molecular target: T5, CREBBP (Homo sapiens, UniProt Q92793); assay: BROMOscan CREBBP; format: binding
T5 construct: ≥2000-fold selectivity over all 20 non-BET bromodomains tested; purchased DiscoverX
Procedure: as §2, §3

GCN5 = molecular target: T6, GCN5 (Homo sapiens, UniProt Q92830); assay: BROMOscan GCN5; format: binding
T6 construct: ≥2000-fold selectivity over all 20 non-BET bromodomains tested; purchased DiscoverX
Procedure: as §2, §3

[1] = system: pharmacologically relevant off-targets; assay: GSK enhanced cross-screening panel (whole panel); conditions: no activity at the concentrations tested
Beta2 Adrenoceptor = molecular target: T7, Beta2 Adrenoceptor (Homo sapiens, UniProt P07550); assay: Cross screening: Beta2 Adrenoceptor Human Agonist; format: biochemical
T7 construct: purchased GSK enhanced cross-screening panel (in-house)

K1 = assay: Cross screening: K1 Agonist; format: biochemical
Dopamine D2 = molecular target: T8, Dopamine D2 (Homo sapiens, UniProt P14416); assay: Cross screening: Dopamine D2 Agonist; format: biochemical
T8 construct: purchased GSK enhanced cross-screening panel (in-house)

M2 (CHRM2) = molecular target: T9, M2 (CHRM2) (Homo sapiens, UniProt P08172); assay: Cross screening: M2 (CHRM2) Human Ag; format: biochemical
T9 construct: purchased GSK enhanced cross-screening panel (in-house)

M1 [2] = molecular target: T10, M1 (Homo sapiens, UniProt P11229); assay: Cross screening: M1 Agonist; format: biochemical
T10 construct: purchased GSK enhanced cross-screening panel (in-house)

5-HT2A = molecular target: T11, 5-HT2A (Homo sapiens, UniProt P28223); assay: Cross screening: 5-HT2A Agonist; format: biochemical
T11 construct: purchased GSK enhanced cross-screening panel (in-house)

5-HT2B = molecular target: T12, 5-HT2B (Homo sapiens, UniProt P41595); assay: Cross screening: 5-HT2B Agonist; format: biochemical
T12 construct: purchased GSK enhanced cross-screening panel (in-house)

[3] = molecular target: T13, Aryl Hydrocarbon Receptor (Homo sapiens, UniProt P35869); assay: Cross screening: Aryl Hydrocarbon Receptor; format: biochemical
T13 construct: purchased GSK enhanced cross-screening panel (in-house)

Alpha 1 nAChR = molecular target: T14, Alpha 1 nAChR (Homo sapiens, UniProt P02708+P07510+Q07001); assay: Cross screening: Alpha 1 nAChR Antagonist; format: biochemical
T14 construct: purchased GSK enhanced cross-screening panel (in-house)

PDE4B = molecular target: T15, PDE4B (Homo sapiens, UniProt Q07343); assay: Cross screening: PDE4B antagonist; format: biochemical
T15 construct: purchased GSK enhanced cross-screening panel (in-house)

NMDA 1A/2B = molecular target: T16, NMDA 1A/2B (Homo sapiens, UniProt Q05586+Q13224); assay: Cross screening: NMDA 1A/2B antagonist; format: biochemical
T16 construct: purchased GSK enhanced cross-screening panel (in-house)

Aurora B = molecular target: T17, Aurora B (Homo sapiens, UniProt Q96GD4); assay: Cross screening: Aurora B inhibitor; format: biochemical
T17 construct: purchased GSK enhanced cross-screening panel (in-house)

D1 = molecular target: T18, D1 (Homo sapiens, UniProt P21728); assay: Cross screening: D1 antagonist; format: biochemical
T18 construct: purchased GSK enhanced cross-screening panel (in-house)

Alpha 1B = molecular target: T19, Alpha 1B (Homo sapiens, UniProt P35368); assay: Cross screening: Alpha 1B antagonist; format: biochemical
T19 construct: purchased GSK enhanced cross-screening panel (in-house)

Histamine 1 = molecular target: T20, Histamine 1 (Homo sapiens, UniProt P35367); assay: Cross screening: Histamine 1 antagonist; format: biochemical
T20 construct: purchased GSK enhanced cross-screening panel (in-house)

M1 [4] = molecular target: T10, M1; assay: Cross screening: M1 antagonist; format: biochemical
5-HT2C = molecular target: T21, 5-HT2C (Homo sapiens, UniProt P28335); assay: Cross screening: 5-HT2C antagonist; format: biochemical
T21 construct: purchased GSK enhanced cross-screening panel (in-house)

PXR = PXR (Homo sapiens, UniProt O75469); assay: Cross screening: PXR Human Agonist
CYP3A4 = CYP3A4 (Homo sapiens, UniProt P08684); assay: Cross screening: CYP3A4 inhibition

T10 sequence (P11229 whole entry): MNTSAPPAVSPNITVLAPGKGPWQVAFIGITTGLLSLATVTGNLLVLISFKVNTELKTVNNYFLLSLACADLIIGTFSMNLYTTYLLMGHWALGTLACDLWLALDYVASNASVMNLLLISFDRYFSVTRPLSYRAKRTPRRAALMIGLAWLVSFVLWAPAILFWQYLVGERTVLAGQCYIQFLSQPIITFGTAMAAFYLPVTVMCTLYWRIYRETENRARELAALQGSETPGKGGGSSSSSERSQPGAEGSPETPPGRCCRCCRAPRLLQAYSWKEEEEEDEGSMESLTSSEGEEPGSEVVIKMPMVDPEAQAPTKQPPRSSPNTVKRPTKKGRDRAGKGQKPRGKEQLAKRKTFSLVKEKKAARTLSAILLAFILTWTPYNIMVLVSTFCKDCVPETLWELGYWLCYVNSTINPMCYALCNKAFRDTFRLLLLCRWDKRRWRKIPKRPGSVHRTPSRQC
T4 sequence (Q09472 1049-1156 limits assumed): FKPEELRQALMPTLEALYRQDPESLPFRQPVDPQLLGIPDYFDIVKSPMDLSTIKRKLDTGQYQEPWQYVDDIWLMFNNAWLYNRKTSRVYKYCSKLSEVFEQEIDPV
T2 sequence (Q15059 34-140 limits assumed): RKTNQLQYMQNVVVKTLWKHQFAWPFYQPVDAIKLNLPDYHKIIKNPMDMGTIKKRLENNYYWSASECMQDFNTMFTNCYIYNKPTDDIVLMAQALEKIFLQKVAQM
T5 sequence (Q92793 1085-1192 limits assumed): as the sequence (Q09472 1049-1156 limits assumed) above, with S47N, I73V, Y93F, S98A counted along it
T8 sequence (P14416 whole entry): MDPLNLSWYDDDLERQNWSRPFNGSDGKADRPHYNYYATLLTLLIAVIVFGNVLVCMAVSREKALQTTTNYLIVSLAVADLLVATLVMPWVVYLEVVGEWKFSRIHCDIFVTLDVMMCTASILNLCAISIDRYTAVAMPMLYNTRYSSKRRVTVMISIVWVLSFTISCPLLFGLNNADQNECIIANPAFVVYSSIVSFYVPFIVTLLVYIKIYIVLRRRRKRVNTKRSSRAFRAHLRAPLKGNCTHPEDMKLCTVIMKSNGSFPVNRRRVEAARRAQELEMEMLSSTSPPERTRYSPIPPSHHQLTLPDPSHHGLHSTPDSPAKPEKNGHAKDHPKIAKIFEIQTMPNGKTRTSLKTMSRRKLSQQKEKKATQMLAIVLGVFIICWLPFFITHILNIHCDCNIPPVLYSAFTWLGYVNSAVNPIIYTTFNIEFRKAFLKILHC
T17 sequence (Q96GD4 whole entry): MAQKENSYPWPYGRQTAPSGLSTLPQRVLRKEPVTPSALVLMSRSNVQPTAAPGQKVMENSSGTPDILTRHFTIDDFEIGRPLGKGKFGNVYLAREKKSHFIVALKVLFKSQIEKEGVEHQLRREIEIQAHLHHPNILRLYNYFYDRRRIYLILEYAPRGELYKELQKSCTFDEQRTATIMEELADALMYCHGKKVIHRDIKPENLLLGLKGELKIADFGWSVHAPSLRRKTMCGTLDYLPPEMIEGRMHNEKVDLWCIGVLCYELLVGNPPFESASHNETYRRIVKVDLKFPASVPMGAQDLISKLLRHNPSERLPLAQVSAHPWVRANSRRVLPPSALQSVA
T18 sequence (P21728 whole entry): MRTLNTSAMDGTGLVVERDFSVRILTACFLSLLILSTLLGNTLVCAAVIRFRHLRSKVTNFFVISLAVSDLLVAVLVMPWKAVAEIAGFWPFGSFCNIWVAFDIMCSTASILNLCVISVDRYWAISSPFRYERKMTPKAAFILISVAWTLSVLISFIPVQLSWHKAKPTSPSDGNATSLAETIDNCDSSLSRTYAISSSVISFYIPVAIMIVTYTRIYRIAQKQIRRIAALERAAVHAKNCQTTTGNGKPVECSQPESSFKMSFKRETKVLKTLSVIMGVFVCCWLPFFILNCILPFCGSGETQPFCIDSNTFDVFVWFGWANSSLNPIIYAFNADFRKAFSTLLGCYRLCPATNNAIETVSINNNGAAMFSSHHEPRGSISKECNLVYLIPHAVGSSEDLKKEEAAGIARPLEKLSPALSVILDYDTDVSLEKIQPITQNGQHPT
T21 sequence (P28335 33-458): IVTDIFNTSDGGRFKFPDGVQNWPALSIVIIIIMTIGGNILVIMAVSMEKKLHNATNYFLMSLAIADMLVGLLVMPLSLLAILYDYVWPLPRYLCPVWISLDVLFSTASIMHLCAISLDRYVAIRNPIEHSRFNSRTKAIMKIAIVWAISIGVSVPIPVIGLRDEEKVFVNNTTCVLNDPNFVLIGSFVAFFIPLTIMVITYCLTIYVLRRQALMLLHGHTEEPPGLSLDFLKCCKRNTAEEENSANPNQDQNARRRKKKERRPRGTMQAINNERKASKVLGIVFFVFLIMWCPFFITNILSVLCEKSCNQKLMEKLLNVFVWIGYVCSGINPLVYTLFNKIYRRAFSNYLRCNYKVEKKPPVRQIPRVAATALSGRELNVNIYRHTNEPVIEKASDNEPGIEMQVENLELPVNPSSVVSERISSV
T13 sequence (P35869 11-848): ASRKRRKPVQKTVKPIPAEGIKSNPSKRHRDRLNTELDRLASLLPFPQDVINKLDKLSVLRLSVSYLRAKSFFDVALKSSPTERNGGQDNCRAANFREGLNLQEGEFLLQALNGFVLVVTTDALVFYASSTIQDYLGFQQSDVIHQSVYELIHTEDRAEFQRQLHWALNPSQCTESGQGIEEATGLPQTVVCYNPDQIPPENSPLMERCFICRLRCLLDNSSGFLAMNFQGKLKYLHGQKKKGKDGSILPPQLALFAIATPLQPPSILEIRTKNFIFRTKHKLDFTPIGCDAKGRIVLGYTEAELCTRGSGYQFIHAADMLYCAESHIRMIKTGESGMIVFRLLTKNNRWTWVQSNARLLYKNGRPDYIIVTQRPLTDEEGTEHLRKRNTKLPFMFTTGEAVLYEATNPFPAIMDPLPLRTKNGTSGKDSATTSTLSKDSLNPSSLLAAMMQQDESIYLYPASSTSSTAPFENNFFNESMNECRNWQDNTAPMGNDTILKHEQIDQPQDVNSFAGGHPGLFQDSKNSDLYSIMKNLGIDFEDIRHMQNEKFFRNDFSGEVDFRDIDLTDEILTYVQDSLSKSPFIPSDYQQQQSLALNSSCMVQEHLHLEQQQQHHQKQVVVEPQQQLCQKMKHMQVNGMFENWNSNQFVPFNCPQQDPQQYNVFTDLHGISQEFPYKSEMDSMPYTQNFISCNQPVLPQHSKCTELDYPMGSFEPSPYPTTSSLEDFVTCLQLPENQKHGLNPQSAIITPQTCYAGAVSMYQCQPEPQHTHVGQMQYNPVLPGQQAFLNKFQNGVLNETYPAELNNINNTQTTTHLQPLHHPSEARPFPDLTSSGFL
T6 sequence (Q92830 728-832 limits assumed): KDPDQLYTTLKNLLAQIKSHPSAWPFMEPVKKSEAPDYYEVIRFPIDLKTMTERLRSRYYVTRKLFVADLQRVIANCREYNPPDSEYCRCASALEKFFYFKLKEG
T1 sequence (P25440 344-453 limits assumed): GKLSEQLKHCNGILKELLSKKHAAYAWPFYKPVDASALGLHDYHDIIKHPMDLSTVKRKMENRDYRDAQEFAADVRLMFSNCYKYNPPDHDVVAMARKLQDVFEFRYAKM
T16 sequence (Q13224 27-1484, other chains not shown): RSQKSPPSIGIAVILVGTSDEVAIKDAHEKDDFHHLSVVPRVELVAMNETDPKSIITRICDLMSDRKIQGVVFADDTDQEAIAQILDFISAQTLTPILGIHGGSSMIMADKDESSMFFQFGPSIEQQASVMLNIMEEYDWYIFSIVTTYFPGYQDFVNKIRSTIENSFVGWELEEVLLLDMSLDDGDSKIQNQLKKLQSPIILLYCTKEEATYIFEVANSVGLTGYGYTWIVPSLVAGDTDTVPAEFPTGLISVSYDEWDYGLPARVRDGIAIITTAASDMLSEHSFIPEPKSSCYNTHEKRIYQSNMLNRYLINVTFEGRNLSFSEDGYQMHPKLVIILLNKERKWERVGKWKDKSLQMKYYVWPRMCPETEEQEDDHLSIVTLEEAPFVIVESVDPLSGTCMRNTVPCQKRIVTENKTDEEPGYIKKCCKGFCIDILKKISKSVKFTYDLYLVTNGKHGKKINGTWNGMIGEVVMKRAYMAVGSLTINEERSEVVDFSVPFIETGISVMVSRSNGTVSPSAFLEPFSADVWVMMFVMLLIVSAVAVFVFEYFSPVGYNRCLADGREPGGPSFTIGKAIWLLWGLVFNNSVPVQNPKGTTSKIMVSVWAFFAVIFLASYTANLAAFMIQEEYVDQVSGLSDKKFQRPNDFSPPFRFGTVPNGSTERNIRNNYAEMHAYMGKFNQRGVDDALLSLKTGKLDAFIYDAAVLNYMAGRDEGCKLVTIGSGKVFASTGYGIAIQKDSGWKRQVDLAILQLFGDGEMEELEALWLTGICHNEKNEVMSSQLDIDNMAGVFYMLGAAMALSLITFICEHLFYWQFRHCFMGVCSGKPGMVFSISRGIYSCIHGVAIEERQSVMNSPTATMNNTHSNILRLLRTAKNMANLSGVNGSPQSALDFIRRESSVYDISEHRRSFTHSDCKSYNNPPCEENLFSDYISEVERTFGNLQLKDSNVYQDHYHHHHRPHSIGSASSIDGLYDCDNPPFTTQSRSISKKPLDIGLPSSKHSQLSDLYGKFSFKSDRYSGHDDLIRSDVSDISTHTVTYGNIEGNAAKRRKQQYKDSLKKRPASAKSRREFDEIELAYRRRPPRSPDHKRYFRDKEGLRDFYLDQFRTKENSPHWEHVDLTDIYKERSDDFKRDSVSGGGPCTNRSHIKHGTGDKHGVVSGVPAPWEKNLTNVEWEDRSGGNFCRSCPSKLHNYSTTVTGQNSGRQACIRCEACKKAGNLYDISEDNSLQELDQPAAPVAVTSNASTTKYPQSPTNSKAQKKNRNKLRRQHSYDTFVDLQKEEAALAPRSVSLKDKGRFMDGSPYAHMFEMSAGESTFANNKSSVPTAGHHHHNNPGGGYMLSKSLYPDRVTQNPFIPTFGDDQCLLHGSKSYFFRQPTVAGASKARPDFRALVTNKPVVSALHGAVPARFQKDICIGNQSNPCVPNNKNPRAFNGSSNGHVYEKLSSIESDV

Cc1cc(-c2nc3ccccc3n2C[C@@H]2CCCN(C(=O)C3CCN(C(C)C)CC3)C2)cn(C)c1=O [Compound 31, (S)-5-(1-((1-(1-Isopropylpiperidine-4-carbonyl)piperidin-3-yl)methyl)-1H-benzo [d]imidazole-2-yl)-1,3-dimethylpyridin-2(1H)-one]
BRD4 BD1 FRET pIC50 (BRD4 BD1): 7.8
fold selectivity (BRD4 BD1 over BRD4 BD2) (BRD4 BD1): 1000 fold
IC50 (MCP-1; Homo sapiens, read-out: hWB MCP-1 IC50): 126 nM
IC50 (MCP-1; LPS-stimulated human whole blood, read-out: hWB MCP-1 pIC50 (converted)): 126 nM
BRD2 BD2 TR-FRET pIC50 (BRD2 BD2): 5.4
BRD3 BD1 TR-FRET pIC50 (BRD3 BD1): 7.7
fold selectivity BRD3 BD1 over BD2 (BRD3 BD1; TR-FRET): 400 fold
BROMOscan pKd BRD4 BD2 (BRD4 BD2): 5.6
BROMOscan pKd EP300 (EP300): 5.0
fold selectivity over EP300 (EP300; BROMOscan, compared to BRD4 BD1 pKd 8.1): 1200 fold
Kd (CREBBP): 20 µM
Kd (GCN5): > 31.6 µM
XC50 in enhanced cross-screening panel [1]: > 25 µM
pXC50 in enhanced cross-screening panel [1]: < 4.6
pXC50 Beta2 Adrenoceptor Human Agonist (Beta2 Adrenoceptor): < 4.0
pXC50 K1 Agonist (K1): < 4.0
pXC50 Dopamine D2 Agonist (Dopamine D2): < 4.0
pXC50 M2 (CHRM2) Human Ag (M2 (CHRM2)): < 4.3
pXC50 M1 Agonist (M1 [2]): < 4.3
pXC50 5-HT2A Agonist (5-HT2A): < 4.0
pXC50 5-HT2B Agonist (5-HT2B): < 4.0
pXC50 Aryl Hydrocarbon Receptor [3]: < 4.0
pXC50 Alpha 1 nAChR Antagonist (Alpha 1 nAChR): < 4.2
pXC50 PDE4B antagonist (PDE4B): < 4.0
pXC50 NMDA 1A/2B antagonist (NMDA 1A/2B): < 4.0
pXC50 Aurora B inhibitor (Aurora B): < 4.5
pXC50 D1 antagonist (D1): < 4.0
pXC50 Alpha 1B antagonist (Alpha 1B): < 4.6
pXC50 Histamine 1 antagonist (Histamine 1): < 4.6
pXC50 M1 antagonist (M1 [4]): < 4.3
pXC50 5-HT2C antagonist (5-HT2C): < 4.0
pKa (pKa of the basic amine): 9.6
pXC50 PXR Human Agonist (PXR): < 4.3
pXC50 CYP3A4 inhibition (CYP3A4): 4.1
